Measurements as given in US20250127774A1, “COMPOUNDS FOR LABELLING NUCLEIC ACID AND USES THEREOF” (THE ROYAL INSTITUTION FOR THE ADVANCEMENT OF …, priority 2022, published 2025).

Legend:
HeLa and U2OS cells = test: Resazurin assay, toxicity evaluation of PINK; format: cell-based; conditions: low micromolar concentrations of PINK (0-12.5 μM), 24 and 72 h
Procedure: Cellular respiratory activity was evaluated by measuring the fluorescence emission after addition of resazurin ([…]).
Resazurin Assay. HeLa or U2OS cells were seeded in 96-well plates at a density of 7,500 cells per well and incubated overnight. The supernatant was removed and 100 μL fresh media containing PINK (0-12.5 μM; 0.1% DMSO) was added. Cells were grown for 24 or 72 h, at which point 10 μL resazurin (880 μM in PBS; final concentration: 80 μM) was added. After incubation for 3 h, the fluorescence emission at 590 nm (excitation 560 nm; cut-off: 575 nm) was measured using a SpectraMax M5 plate reader (Molecular Devices, Sunnyvale, CA, USA). LC50 values were determined from two independent replicates.

PINK stability test = format: physicochemical; conditions: 20 μM PINK, 1 mM b.p. CT-DNA, PBS pH 7.4 (10% DMSO)
Procedure: B) Fluorescence changes (excitation: 500 nm, emission: 590 nm; 515 nm cutoff filter) of 20 μM PINK in the presence of 1 mM b.p. CT-DNA (50 eq) in PBS pH 7.4 (10% DMSO) followed by addition of 5-norbornene-2-methanol (2 mM, 100 eq).
PINK Stability Test. Fluorescence changes (excitation: 500 nm, emission: 590 nm; 515 nm cutoff filter) of 20 μM PINK were monitored in the presence of 1 mM base pairs of calf thymus (CT) DNA (50 eq) in PBS pH 7.4 (10% DMSO) followed by addition of 5-norbornene-2-methanol (2 mM, 100 eq). Measurements were conducted on a SpectraMax M5 plate reader (Molecular Devices, Sunnyvale, CA, USA) in 1 cm path-length quartz cuvettes.

MOLM-13 cells = test: Cell counting assay (Trypan Blue); format: cell-based, human; conditions: MOLM-13, 5 μM nucleoside, 1 μM PINK
Procedure: (§1) To confirm the cytotoxicity results obtained from the resazurin assays, a cell counting assay was conducted using Trypan Blue. It is an azo dye allows to discriminate between viable cells and dead cells, since dead cells will take in the dye, while viable cells will remain white. 28 From the resazurin assays, and after some optimization based on cell sensitivity to the vinyl-nucleosides, it was determined that […] and 5 μM of vinyl-nucleosides alone and in combination with 1 μM of PINK were two interesting concentrations to explore in Jurkat, MV4-11, and MOLM-13 cells. Cells were incubated with 5 μM or 10 μM of each nucleoside overnight (Day 0), and 1 μM of PINK was added for the combinations and PINK alone 24h post nucleoside incubation (Day 1). The cells were counted every 24h.
(§2) Cell Counting Assay. Jurkat, MV4-11 and MOLM-13 cells were seeded in 12-well plates at a density of 500 000 cells/mL, 175 000 cells/mL and 375 000 cells/mL, respectively, in duplicates. The cells were incubated overnight in fresh media containing 10 μM (Jurkat) or 5 μM (MV4-11 and MOLM-13) of each nucleoside (˜0.01% DMSO). 24h post nucleoside addition, 1 μM of PINK (˜0.01% DMSO) were added to the respective wells and incubated for 24 h. The cells were counted using a cell counter (BIO RAD TC20) to determine the percentage of viable cells and the cell concentration. The cells were counted every 24h using Trypan Blue in a 1:1 ratio.

MV4-11 cells = test: Cell counting assay (Trypan Blue); format: cell-based, human; conditions: MV4-11, 5 μM nucleoside, 1 μM PINK
Procedure: as §1, §2

Jurkat cells = test: Cell counting assay (Trypan Blue); format: cell-based, human; conditions: 10 μM nucleoside, 1 μM PINK
Procedure: as §1, §2

Row | Structure (SMILES) | toxicity to cells (cellular respiratory activity, resazurin) (HeLa and U2OS cells) | degradation of PINK on extended incubation with unmodified DNA (PINK stability test) | cell concentration (cell growth) (MOLM-13 cells) | cell concentration (cell growth) (MV4-11 cells) | cell concentration (cell growth) (Jurkat cells)
1 | Cc1nnc(-c2ccc3cc4ccc(N(C)C)cc4nc3c2)nn1 [PINK] | not toxic to cells even at longer incubation times | little-to-no degradation | – | – | –
2 | C=Cc1cn([C@H]2C[C@H](O)[C@@H](CO)O2)c(=O)[nH]c1=O [VdU, 5-vinyl-2′-deoxyuridine] | – | – | seem to inhibit cell growth | significantly inhibited cell growth | more impact on cell growth than expected from the resazurin assay
